Experimental data from US20200121677A1, “SUBSTITUTED 6,7-DIHYDROPYRAZOLO[1,5-a]PYRAZINES AS NEGATIVE ALLOSTERIC MODULATORS OF MGLUR2 RECEPTORS” (Janssen Pharmaceutica NV, priority 2014, published 2020).

Key:
rats = assay: Reversal of the effect of the mGluR2 PAM JNJ-42153605-induced inhibition of scopolamine-induced hyperlocomotion; type: in vivo, rat; conditions: rats, route PO, criterion total distance >1500 cm; for ED50: Rattus norvegicus, read-out: ED50 SCOP JNJ-42153605 (Reversal of the effect of JNJ 42153605 on scopolamine-induced hyperlocomotion)
Procedure: 2) Reversal of the Effect of the mGluR2 PAM JNJ-42153605-Induced Inhibition of Scopolamine-Induced Hyperlocomotion
Motor activity was measured in microprocessor-based motor activity arenas (closed gray PVC cylinders with a height of 39 cm and a diameter of 31 cm). Each arena was placed on an infrared LED (8×8 LEDs) lit box (white PVC squared box; 40×40 cm^2; height 12.5 cm. An infrared-sensitive tube camera and a white light source were mounted to the ceiling above the observation chamber to track the animal. The total distance traveled (cm) was recorded and analyzed using the Noldus Ethovision XT Video Tracking System (Version 7.0.418; Noldus, Wageningen, The Netherlands). The intensity of the light within the activity cages (measured in the centre at the level of the floor) ranged between 4 and 8 LUX.
The rats were pretreated with test compound or vehicle at 60 min before the start of the activity recordings and placed into individual cages. The rats were challenged with JNJ-42153605 (3-(cyclopropylmethyl)-7-(4-phenylpiperidin-1-yl)-8-(trifluoromethyl)[1,2,4]triazolo[4,3-a]pyridine; WO2010/130424; Cid et al. J. Med. Chem. 2012, 55, 8770-8789) (20 mg/kg, i.v.) 30 min before the start of the activity recording combined with scopolamine (0.16 mg/kg, i.v.) just before the start of the activity measurements. Immediately after the injection of scopolamine, the rats were placed into the activity monitors and total distance traveled over the first 30 min was measured.
For reversal of the inhibitory effect of JNJ-42153605 on the scopolamine-induced hyperlocomotion, the following all-or-none criteria were adopted: (1) reversal: total distance >1500 cm.

human mGlu2 receptor = human mGlu2 receptor (Homo sapiens, UniProt Q14416); assay: [35S]GTPγS binding assay, mGluR2 negative allosteric modulation (membranes from CHO cells transfected with human mGlu2 receptor, glutamate ~EC80 60 μM); conditions: for GTPγS - hmGluR2 anGT pIC50: membranes with human mGlu2 receptor; for GTPγS - hmGluR2 anGT pIC50 / IC50: glutamate ~EC80 (60 μM), pIC50 = -log IC50 (M); for GTPγS - hmGluR2 anGT Emax: relative maximal effect: maximal % inhibition relative to the control glutamate response; for IC50: GTPγS - hmGluR2 anGT pIC50, membranes with human mGlu2 receptor; for Emax: read-out: GTPγS - hmGluR2 anGT Emax, relative maximal effect: maximal % inhibition relative to the control glutamate response;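 for all read-outs here: membranes preincubated 30 min at 30 °C with compound plus glutamate, then [35S]GTPγS (0.1 nM) incorporation measured over another 30 min at 30 °C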
human mGlu2 receptor, sequence (Q14416 19-872): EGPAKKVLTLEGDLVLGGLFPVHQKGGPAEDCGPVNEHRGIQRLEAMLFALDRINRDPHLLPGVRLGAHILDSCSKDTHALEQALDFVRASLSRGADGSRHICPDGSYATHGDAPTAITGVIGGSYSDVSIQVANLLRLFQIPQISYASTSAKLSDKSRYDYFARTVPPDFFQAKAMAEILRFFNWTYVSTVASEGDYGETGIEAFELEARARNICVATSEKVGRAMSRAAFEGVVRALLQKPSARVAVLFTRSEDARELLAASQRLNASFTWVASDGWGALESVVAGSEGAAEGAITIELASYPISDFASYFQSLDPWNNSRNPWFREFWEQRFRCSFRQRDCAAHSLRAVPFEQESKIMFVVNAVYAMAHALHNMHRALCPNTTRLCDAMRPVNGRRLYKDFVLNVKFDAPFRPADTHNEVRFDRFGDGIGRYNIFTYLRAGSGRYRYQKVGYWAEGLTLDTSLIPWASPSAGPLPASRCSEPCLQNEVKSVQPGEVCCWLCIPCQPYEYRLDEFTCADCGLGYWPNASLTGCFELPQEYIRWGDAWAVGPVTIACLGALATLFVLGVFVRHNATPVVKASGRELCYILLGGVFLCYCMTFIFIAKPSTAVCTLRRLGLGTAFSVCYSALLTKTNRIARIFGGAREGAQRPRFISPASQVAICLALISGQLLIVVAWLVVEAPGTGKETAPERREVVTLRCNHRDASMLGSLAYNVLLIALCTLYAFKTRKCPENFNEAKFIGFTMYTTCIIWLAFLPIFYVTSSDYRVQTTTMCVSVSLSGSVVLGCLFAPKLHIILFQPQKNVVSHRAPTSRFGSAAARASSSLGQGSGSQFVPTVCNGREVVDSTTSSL
Procedure: The [^35S]GTPγS binding assay is a functional membrane-based assay used to study G-protein coupled receptor (GPCR) function whereby incorporation of a non-hydrolysable form of GTP, [^35S]GTPγS (guanosine 5′-triphosphate, labelled with gamma-emitting ^35S), is measured. […] Here we describe the use of the [^35S]GTPγS binding assay using membranes from cells transfected with the human mGlu2 receptor and adapted from Schaffhauser et al. (Molecular Pharmacology, 2003, 4:798-810) for the detection of the negative allosteric modulation (NAM) properties of the compounds of this invention.
CHO-cells were cultured to pre-confluence and stimulated with 5 mM butyrate for 24 h. Cells were then collected by scraping in PBS and cell suspension was centrifuged (10 min at 4000 RPM in benchtop centrifuge). Supernatant was discarded and pellet gently resuspended in 50 mM Tris-HCl, pH 7.4 by mixing with an Ultra Turrax homogenizer. The suspension was centrifuged at 12,400 RPM (Sorvall F14S-6x250Y) for 10 minutes and the supernatant discarded. The pellet was homogenized in 5 mM Tris-HCl, pH 7.4 using an Ultra Turrax homogenizer and centrifuged again (13,000 RPM, 20 min, 4° C.). The final pellet was resuspended in 50 mM Tris-HCl, pH 7.4 and stored at −80° C. in appropriate aliquots before use. Protein concentration was determined by the Bradford method (Bio-Rad, USA) with bovine serum albumin as standard.
Measurement of mGluR2 negative allosteric modulatory activity of test compounds was performed as follows. Test compounds and glutamate were diluted in assay buffer containing 10 mM HEPES acid, 10 mM HEPES salt, pH 7.4, 100 mM NaCl, 3 mM MgCl2 and 10 μM GDP. Human mGlu2 receptor-containing membranes were thawed on ice and diluted in assay buffer supplemented with 18 μg/ml saponin. Membranes were pre-incubated with compound together with a predefined (˜EC80) concentration of glutamate (60 μM) for 30 min at 30° C. After addition of [^35S]GTPγS (f.c. 0.1 nM), assay mixtures were shaken briefly and further incubated to allow [^35S]GTPγS incorporation on activation (30 minutes, 30° C.). Final assay mixtures contained 7 μg of membrane protein in 10 mM HEPES acid, 10 mM HEPES salt, pH 7.4, 100 mM NaCl, 3 mM MgCl2, 10 μM GDP and 10 μg/ml saponin. Total reaction volume was 200 μl. Reactions were terminated by rapid filtration through Unifilter-96 GF/B plates (Perkin Elmer, Massachusetts, USA) using a 96-well filtermate universal harvester. Filters were washed 6 times with ice-cold 10 mM NaH2PO4/10 mM Na2HPO4, pH 7.4. Filters were then air-dried, and 30 μl of liquid scintillation cocktail (Microscint-O) was added to each well. Membrane-bound radioactivity was counted in a Topcount.
Data were calculated as % of the control glutamate response, defined as the response that is generated upon addition of an EC80-equivalent concentration of glutamate.

Wiga rats = assay: Induction of mydriasis (pupil diameter, test 1 and test 2); type: in vivo, rat; conditions: route PO, pupil diameter >25 units, maximum over 1, 2 or 3 h post-administration; for ED50: Rattus norvegicus, read-out: ED50 MYD Test 2 (Induction of mydriasis)
Procedure: 3) Induction of Mydriasis
The pupil diameter of Wiga rats was measured with a microscopic micrometer (1 unit=1/24 mm). Criteria for drug-induced effects: pupil diameter >25 units for mydriasis (in controls: 1.9%) 1 h post-administration of the test compound (test 1) or 1, 2 or 3 h post-administration of the test compound (test 2, wherein the maximum pupil diameter over the full 3 h period is reported).

Male Wiga Wistar rats = assay: Reversal of LY-404039-induced decrease of palpebral opening in apomorphine-challenged rats; type: in vivo, rat; conditions: rats, route PO (route cell empty for Co. 88 and 84); for ED50: Rattus norvegicus, read-out: ED50 APO LY-404039 (Reversal of LY-404039-induced decrease of palpebral opening in apomorphine challenged rats)
Procedure: 1) Reversal of LY-404039-Induced Decrease of Palpebral Opening in Apomorphine-Challenged Rats.
Male Wiga Wistar rats (Crl:WI; Charles River Germany; 220±40 g) were housed under standard laboratory conditions (21±2° C.; 50-65% relative humidity; light-dark cycle set at 12 h; lights on at 6.00 h) and fasted overnight prior to the start of the experiments (tap water remained available ad libitum). During the test period, they were housed in individual cages. Palpebral opening was scored every 5 min over the first hour after injection of apomorphine (1.0 mg/kg, i.v.) in animals either pretreated or not pretreated with LY-404039 (2.5 mg/kg, s.c.) at 1 h prior to the apomorphine injection. The animals were also pretreated with test compound or solvent at a predefined interval before apomorphine challenge. The score system was: (5) exophthalmos, (4) wide open, (3) open for three-quarters, (2) half open, (1) open for one-quarter, (0) closed. The scores for palpebral opening were cumulated over the 60-min observation period.

Row | Compound | ED50 SCOP JNJ-42153605 (Reversal of the effect of JNJ 42153605 on scopolamine-induced hyperlocomotion) (rats) | GTPγS - hmGluR2 anGT pIC50 (human mGlu2 receptor) | GTPγS - hmGluR2 anGT Emax (human mGlu2 receptor) | ED50 MYD Test 2 (Induction of mydriasis) (Wiga rats) | ED50 (rats) | melting point | IC50 (human mGlu2 receptor) | Emax (human mGlu2 receptor) | ED50 (Wiga rats) | ED50 APO LY-404039 (Reversal of LY-404039-induced decrease of palpebral opening in apomorphine challenged rats) (Male Wiga Wistar rats) | ED50 (Male Wiga Wistar rats)
1 | Cc1cc(NC(=O)c2cnn3c2C(=O)N(c2ccc(C(F)(F)F)c(Cl)c2)C[C@@H]3C)ccn1 [compound 109] | 0.32 mg/kg | 8.91 | 109% | 32 mg/kg | – | – | – | – | – | – | –
2 | Cc1c(F)cncc1NC(=O)c1cnn2c1C(=O)N(c1ccc(C(F)(F)F)cc1)C[C@@H]2C [compound 124, (7S)—N-(5-Fluoro-4-methyl-3-pyridyl)-7-methyl-4-oxo-5-[4-(trifluoromethyl)phenyl]-6,7-dihydropyrazolo[1,5-a]pyrazine-3-carboxamide] | – | – | – | – | 0.2 mg/kg | 194.5 °C | 2.24e-09 M | 107% | > 40 mg/kg | – | –
3 | Cc1cc(NC(=O)c2cnn3c2C(=O)N(c2ccc(C(F)(F)F)cc2)C[C@@H]3C)cc(C)n1 [compound 101] | 0.5 mg/kg | 8.57 | 118% | >10 mg/kg | – | – | – | – | – | 0.79 mg/kg | –
4 | C[C@H]1CN(c2ccc(C(F)(F)F)c(F)c2)C(=O)c2c(C(=O)Nc3cccnc3)cnn21 [compound 21] | 0.32 mg/kg | 8.72 | 108% | 7.9 mg/kg | – | – | – | – | – | – | –
5 | Cc1cc(NC(=O)c2cnn3c2C(=O)N(c2ccc(Cl)c(Cl)c2)C[C@@H]3C)cc(C)n1 [compound 118] | >0.63 mg/kg | 8.8 | 105% | 1.3 mg/kg | – | – | – | – | – | >0.63 mg/kg | –
6 | Cc1cc(N2C[C@H](C)n3ncc(C(=O)Nc4cncc(F)c4)c3C2=O)ccc1C(F)(F)F [compound 39] | – | – | – | – | 0.32 mg/kg | 144.6 °C | 9.33e-10 M | 112% | 5 mg/kg | – | –
7 | COc1cc(N2C[C@H](C)n3ncc(C(=O)Nc4cncc(F)c4)c3C2=O)ccc1C(F)(F)F [compound 117] | – | – | – | – | 0.51 mg/kg | 259 °C | 3.72e-09 M | 105% | > 10 mg/kg | – | –
8 | Cc1ccncc1NC(=O)c1cnn2c1C(=O)N(c1ccc(C(F)(F)F)c(C)c1)C[C@@H]2C [compound 38] | – | – | – | – | 0.2 mg/kg | 186.5 °C | 1.15e-09 M | 108% | 2 mg/kg | – | –
9 | Cc1cc(N2C[C@H](C)n3ncc(C(=O)Nc4ccccn4)c3C2=O)ccc1C(F)(F)F [compound 35] | – | – | – | – | > 2.5 mg/kg | 227.3 °C | 3.98e-09 M | 114% | – | – | > 10 mg/kg
10 | Cc1cncc(NC(=O)c2cnn3c2C(=O)N(c2ccc(C(F)(F)F)c(C)c2)C[C@@H]3C)c1 [compound 37] | – | – | – | – | > 0.63 mg/kg | 202.8 °C | 7.24e-10 M | 108% | – | – | > 0.63 mg/kg
11 | C[C@H]1CN(c2ccc(C(F)(F)F)c(Cl)c2)C(=O)c2c(C(=O)Nc3cccnc3)cnn21 [compound 47] | – | – | – | – | 0.5 mg/kg | 140.43 °C | 1.07e-09 M | 109% | 32 mg/kg | – | –
12 | C[C@H]1CN(c2ccc(C(F)(F)F)c(F)c2)C(=O)c2c(C(=O)Nc3ccccn3)cnn21 [compound 20] | – | – | – | – | > 2.5 mg/kg | 199.2 °C | 1.07e-08 M | 113% | – | – | > 2.5 mg/kg
13 | Cc1ccncc1NC(=O)c1cnn2c1C(=O)N(c1ccc(C(F)(F)F)cc1)C[C@@H]2C [compound 14] | – | – | – | – | 0.13 mg/kg | 249.5 °C | 2.45e-09 M | 109% | – | – | 0.13 mg/kg
14 | Cc1cc(N2C[C@H](C)n3ncc(C(=O)Nc4cccnc4)c3C2=O)ccc1C(F)(F)F [compound 36, (7S)-7-Methyl-5-[3-methyl-4-(trifluoromethyl)phenyl]-4-oxo-N-(3-pyridyl)-6,7-dihydropyrazolo[1,5-a]pyrazine-3-carboxamide] | – | – | – | – | 0.2 mg/kg | 156.85 °C | 8.51e-10 M | 111% | 20 mg/kg | – | –
15 | C[C@H]1CN(c2ccc(Cl)c(Cl)c2)C(=O)c2c(C(=O)Nc3cccnc3)cnn21 [compound 26] | 0.32 mg/kg | 9.08 | 107% | 5 mg/kg | – | – | – | – | – | – | –
16 | C[C@H]1CN(c2ccc(Cl)c(Cl)c2)C(=O)c2c(C(=O)Nc3cnccn3)cnn21 [compound 116] | – | – | – | – | 0.05 mg/kg | 213.63 °C | 1.35e-09 M | 109% | 5 mg/kg | – | –
17 | Cc1ccncc1NC(=O)c1cnn2c1C(=O)N(c1ccc(Cl)c(Cl)c1)C[C@@H]2C [compound 30] | – | – | – | – | 0.51 mg/kg | 225 °C | 1.1e-09 M | 111% | 3.1 mg/kg | – | –
18 | C[C@H]1CN(c2ccc(Cl)c(Cl)c2)C(=O)c2c(C(=O)Nc3ccccn3)cnn21 [compound 25] | – | – | – | – | > 2.5 mg/kg | 258.4 °C | 3.09e-09 M | 112% | – | – | > 10 mg/kg
19 | C[C@H]1CN(c2ccc(Cl)c(Cl)c2)C(=O)c2c(C(=O)Nc3cncc(F)c3)cnn21 [compound 27] | 0.32 mg/kg | 9.09 | 108% | >10 mg/kg | – | – | – | – | – | – | –
20 | C[C@H]1CN(c2ccc(Cl)cc2)C(=O)c2c(C(=O)Nc3cnccn3)cnn21 [compound 162] | – | – | – | – | 0.13 mg/kg | 250.1 °C | 6.76e-09 M | 109% | > 10 mg/kg | – | –
